Key:
lymphocytes [1] = experiment: Ex vivo treatment of human blood, TMRE mitochondrial membrane potential of lymphocytes by flow cytometry; format: cell-based; details: whole blood treated ex vivo with 50 μM before staining with SYTO 13 and TMRE
Experimental: Furthermore, one fraction of blood was treated ex vivo with carbonyl cyanide 3-chlorophenylhydrazone (CCCP), a toxic chemical that is known to disrupt mitochondrial membrane potential.
Blood from a finger prick (approximately 150 μl) was collected into a tube containing 10 μl heparin solution (500 Units/ml; approximately 6% dilution). One 5 μl aliquot of heparinized whole blood was added to a tube with 1 ml Hank's Balance Salt Solution containing SYTO®13 at 5 nM, TMRE at 100 nM, and 20,720 counting beads per ml (beads from Molecular Probes, cat. no. C36950) (i.e., blood diluted another 200-fold). A second fraction of blood was treated with 50 μM CCCP before being stained with SYTO® and TMRE as above. After staining for 30 minutes at room temperature, the samples were analyzed with a FACSCalibur flow cytometer providing 488 nm excitation.
Acquisition was triggered with a FL1 threshold that was set sufficiently high so as to exclude platelets, mature erythrocytes and reticulocytes, thereby restricting acquisition to nucleated cells. By expressing light scatter in linear scale, it was possible to focus on particular subpopulations, for instance lymphocytes that are low in forward and side scatter relative to other nucleated cells (FIG. 4A). […]

lymphocytes [2] = experiment: Radioprotectant evaluation using mouse blood: lymphocytes; format: in vivo, C57BL/6J mice; details: 400 mg/kg ip, 30 minutes prior to 1 Gy gamma rays; blood collected 46±3 hrs post-irradiation
Experimental: In this experiment, one group of five C57BL/6J mice was sham irradiated, whereas two other groups of five mice were exposed to 1 Gy gamma rays. While one group of irradiated mice was injected with vehicle, the other was injected with the radioprotectant agent amifostine (400 mg/kg injected ip, 30 minutes prior to irradiation). […] 5 μl of whole blood were added to tubes containing 1 ml HBSS with SYTO®13 at 10 nM, TMRE at 100 nM, and 20,720 counting beads per ml (beads from Molecular Probes, cat. no. C36950). After 30 minutes at room temperature, the samples were moved to 4° C. and analyzed with a FACSCalibur flow cytometer providing 488 nm excitation. […] Furthermore, with the incorporation of the TMRE dye, it was possible to enumerate the percentage of lymphocytes that express dysfunctional mitochondrial membranes.

reticulocytes = experiment: Radioprotectant evaluation using mouse blood: reticulocytes; format: in vivo, C57BL/6J mice; details: 400 mg/kg ip, 30 minutes prior to 1 Gy gamma rays; blood collected 46±3 hrs post-irradiation
Experimental: In this experiment, one group of five C57BL/6J mice was sham irradiated, whereas two other groups of five mice were exposed to 1 Gy gamma rays. […] 5 μl of whole blood were added to tubes containing 1 ml HBSS with SYTO®13 at 10 nM, TMRE at 100 nM, and 20,720 counting beads per ml (beads from Molecular Probes, cat. no. C36950). After 30 minutes at room temperature, the samples were moved to 4° C. and analyzed with a FACSCalibur flow cytometer providing 488 nm excitation. In the first round of analysis, a forward scatter threshold was used to trigger data acquisition. With the trigger channel set sufficiently low, platelets as well as all blood cell types were acquired. Similar to thiazole orange, SYTO®13 dye in conjunction with light scatter signals was capable of resolving mature erythrocytes, reticulocytes, nucleated cells, platelets, and reticulated platelets. […] Reticulocytes can thus be quantified as a percentage of all erythrocytes, and reticulated platelets can be quantified as a percentage of all platelets. Furthermore, with the incorporation of the TMRE dye, it was possible to enumerate the percentage of reticulocytes that express dysfunctional mitochondrial membranes.

Compound | TMRE-associated fluorescence of lymphocytes / incidence of TMRE-negative lymphocytes (lymphocytes [1]) | TMRE-associated fluorescence of lymphocytes / incidence of TMRE-negative lymphocytes (lymphocytes [1]; listed as carbonyl cyanide 3-chlorophenylhydrazone) | protection against decrease of percentage of lymphocytes by 1 Gy irradiation (lymphocytes [2]) | reticulocyte effects of 1 Gy irradiation (decrease of reticulocytes, increase in percentage of reticulocytes with dysfunctional mitochondria) (reticulocytes)
N#CC(C#N)=NNc1cccc(Cl)c1 [CCCP, carbonyl cyanide 3-chlorophenylhydrazone] | increased incidence of events falling into this region | low TMRE-associated fluorescence |  | 
NCCCNCCSP(=O)(O)O [amifostine] |  |  | no appreciable protection | ameliorated

From patent US8535226B2, “Method for measuring in vivo hematotoxicity with an emphasis on radiation exposure assessment” (Litron Laboratories, Ltd., priority 2007, dated 2013)
